# Source: ChEMBL document CHEMBL4229536, “In vitro and in vivo pharmacokinetic and pharmacodynamic study of MBRI-001, a deuterium-substituted plinabulin derivative as a potent anti-cancer agent” (Bioorg Med Chem, 2018)
# How the values were obtained:
# Mus musculus [1] = test: Toxicity in nude mouse xenografted with human NCI-H460 cells assessed as death at 25 to 100 mg/kg, po qd for 14 consecutive days; format: organism-based; settings: in vivo
# Mus musculus [2] = test: Toxicity in Balb/c mouse assessed as mortality at 20 to 40 mg/kg, iv administered three times in a day every 2 days for 15 consecutive days; format: organism-based; settings: in vivo, 48 h
# [3] = Stability in rat liver microsomes at 50 uM after 5 mins in presence of NADPH by LC-MS/MS analysis; format: ADME, microsome; settings: microsomes, 5 min, 50 µM
# [4] = Stability in rat plasma at 1 uM after 40 mins by LC-MS/MS analysis; format: ADME, cell-free; settings: read-out: Stability
# [5] = Stability in rat plasma at 1 uM after 120 mins by LC-MS/MS analysis; format: ADME, cell-free; settings: read-out: Stability
# [6] = Stability in rat liver microsomes at 50 uM after 270 mins in presence of NADPH by LC-MS/MS analysis; format: ADME, microsome; settings: 4.5 h
# [7] = Stability in rat plasma at 1 uM after 5 mins by LC-MS/MS analysis; format: ADME, cell-free; settings: read-out: Stability
# [8] = Stability in rat liver microsomes at 50 uM after 150 mins in presence of NADPH by LC-MS/MS analysis; format: ADME, microsome; settings: read-out: Stability
# Cytochrome P450 1A2 = molecular target: T1, Cytochrome P450 1A2 (Homo sapiens, UniProt P05177); test: Inhibition of CYP1A2 in human liver microsomes preincubated for 10 mins followed by NADPH addition measured after 10 mins by LC-MS/MS analysis; format: ADME
# T1 sequence (P05177 whole entry): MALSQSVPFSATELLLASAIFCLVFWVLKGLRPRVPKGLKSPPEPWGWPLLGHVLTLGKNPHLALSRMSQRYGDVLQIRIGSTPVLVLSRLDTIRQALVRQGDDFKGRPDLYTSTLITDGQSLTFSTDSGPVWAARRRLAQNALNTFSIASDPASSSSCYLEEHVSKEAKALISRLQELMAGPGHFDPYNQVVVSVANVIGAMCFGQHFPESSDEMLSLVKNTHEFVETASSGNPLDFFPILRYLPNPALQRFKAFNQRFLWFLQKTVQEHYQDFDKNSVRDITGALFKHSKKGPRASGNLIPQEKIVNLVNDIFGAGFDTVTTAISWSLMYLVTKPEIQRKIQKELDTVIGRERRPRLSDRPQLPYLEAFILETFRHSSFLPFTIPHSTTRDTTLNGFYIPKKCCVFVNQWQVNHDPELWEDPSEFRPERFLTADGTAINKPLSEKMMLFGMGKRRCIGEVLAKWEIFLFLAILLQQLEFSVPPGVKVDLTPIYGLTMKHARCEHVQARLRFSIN
# [9] = Stability in rat plasma at 1 uM after 10 mins by LC-MS/MS analysis; format: ADME, cell-free; settings: read-out: Stability
# Cytochrome P450 3A4 = Cytochrome P450 3A4 (Homo sapiens, UniProt P08684); test: Inhibition of CYP3A4 in human liver microsomes preincubated for 10 mins followed by NADPH addition measured after 10 mins by LC-MS/MS analysis; format: ADME
# Cytochrome P450 3A4, sequence (P08684 whole entry): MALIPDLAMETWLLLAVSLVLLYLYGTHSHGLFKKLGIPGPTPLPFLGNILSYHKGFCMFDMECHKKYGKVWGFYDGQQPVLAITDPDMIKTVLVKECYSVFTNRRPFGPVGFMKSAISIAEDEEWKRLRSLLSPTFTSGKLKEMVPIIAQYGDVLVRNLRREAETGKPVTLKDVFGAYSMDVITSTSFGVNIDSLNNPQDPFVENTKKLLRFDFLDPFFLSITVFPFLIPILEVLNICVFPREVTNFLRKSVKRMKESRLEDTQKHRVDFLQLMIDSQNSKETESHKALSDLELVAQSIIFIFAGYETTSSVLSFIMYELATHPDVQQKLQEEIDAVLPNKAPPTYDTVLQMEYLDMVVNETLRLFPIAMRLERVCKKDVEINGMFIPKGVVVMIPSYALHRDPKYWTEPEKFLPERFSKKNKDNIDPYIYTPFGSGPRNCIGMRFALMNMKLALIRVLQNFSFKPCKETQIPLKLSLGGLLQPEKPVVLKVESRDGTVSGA
# [10] = Stability in rat liver microsomes at 50 uM after 120 mins in presence of NADPH by LC-MS/MS analysis; format: ADME, microsome; settings: read-out: Stability
# [11] = Protein binding in human plasma at 2 uM after 4 hrs by LC-MS/MS analysis; format: ADME, cell-free; settings: read-out: PPB (converted)
# [12] = Stability in rat liver microsomes at 50 uM after 90 mins in presence of NADPH by LC-MS/MS analysis; format: ADME, microsome; settings: read-out: Stability
# [13] = Stability in rat plasma at 1 uM after 20 mins by LC-MS/MS analysis; format: ADME, cell-free; settings: read-out: Stability
# [14] = Stability in rat liver microsomes at 50 uM after 40 mins in presence of NADPH by LC-MS/MS analysis; format: ADME, microsome; settings: read-out: Stability
# [15] = Stability in rat liver microsomes at 50 uM after 10 mins in presence of NADPH by LC-MS/MS analysis; format: ADME, microsome; settings: microsomes, 10 min, 50 µM
# [16] = Stability in rat plasma at 1 uM after 90 mins by LC-MS/MS analysis; format: ADME, cell-free; settings: read-out: Stability
# [17] = Protein binding in Sprague-Dawley rat plasma at 2 uM after 4 hrs by LC-MS/MS analysis; format: ADME, cell-free; settings: read-out: PPB (converted)
# Cytochrome P450 2C19 = Cytochrome P450 2C19 (Homo sapiens, UniProt P33261); test: Inhibition of CYP2C19 in human liver microsomes preincubated for 10 mins followed by NADPH addition measured after 10 mins by LC-MS/MS analysis; format: ADME
# Cytochrome P450 2C19, sequence (P33261 whole entry): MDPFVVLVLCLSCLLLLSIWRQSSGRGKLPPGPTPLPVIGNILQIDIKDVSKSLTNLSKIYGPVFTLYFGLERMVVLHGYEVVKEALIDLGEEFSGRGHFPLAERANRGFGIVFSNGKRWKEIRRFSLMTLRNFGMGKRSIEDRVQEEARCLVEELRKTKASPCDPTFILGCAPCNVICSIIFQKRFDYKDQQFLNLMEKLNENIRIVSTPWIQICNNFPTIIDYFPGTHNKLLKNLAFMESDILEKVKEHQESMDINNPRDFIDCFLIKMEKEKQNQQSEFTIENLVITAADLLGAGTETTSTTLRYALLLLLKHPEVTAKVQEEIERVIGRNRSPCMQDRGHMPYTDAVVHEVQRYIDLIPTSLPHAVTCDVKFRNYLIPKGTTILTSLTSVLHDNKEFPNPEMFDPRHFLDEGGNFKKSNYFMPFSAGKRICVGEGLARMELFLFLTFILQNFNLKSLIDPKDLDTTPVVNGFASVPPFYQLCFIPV
# [18] = Stability in rat plasma at 1 uM after 60 mins by LC-MS/MS analysis; format: ADME, cell-free; settings: read-out: Stability
# [19] = Stability in rat liver microsomes at 50 uM after 60 mins in presence of NADPH by LC-MS/MS analysis; format: ADME, microsome; settings: read-out: Stability
# Cytochrome P450 2D6 = Cytochrome P450 2D6 (Homo sapiens, UniProt P10635); test: Inhibition of CYP2D6 in human liver microsomes preincubated for 10 mins followed by NADPH addition measured after 10 mins by LC-MS/MS analysis; format: ADME
# Cytochrome P450 2D6, sequence (P10635 whole entry): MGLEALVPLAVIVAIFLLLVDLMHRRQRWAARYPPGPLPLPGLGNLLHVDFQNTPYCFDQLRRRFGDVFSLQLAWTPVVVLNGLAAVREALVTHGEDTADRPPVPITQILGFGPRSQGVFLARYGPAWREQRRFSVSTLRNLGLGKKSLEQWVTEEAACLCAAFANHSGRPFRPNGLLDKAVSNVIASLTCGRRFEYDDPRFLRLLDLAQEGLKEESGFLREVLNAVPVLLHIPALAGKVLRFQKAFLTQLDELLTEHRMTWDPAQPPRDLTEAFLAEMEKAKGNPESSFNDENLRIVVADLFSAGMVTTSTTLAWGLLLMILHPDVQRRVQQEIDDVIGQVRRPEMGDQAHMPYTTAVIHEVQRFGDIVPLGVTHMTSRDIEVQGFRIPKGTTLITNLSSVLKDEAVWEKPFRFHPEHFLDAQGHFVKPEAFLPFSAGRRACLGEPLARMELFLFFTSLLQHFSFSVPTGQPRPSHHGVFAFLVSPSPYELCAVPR
# [20] = Half life in rat liver microsomes at 50 uM in presence of NADPH by LC-MS/MS analysis; format: ADME, microsome
# [21] = Protein binding in Beagle dog plasma at 2 uM after 4 hrs by LC-MS/MS analysis; format: ADME, cell-free, Canis lupus familiaris; settings: read-out: PPB (converted)
# [22] = Clearance in rat liver microsomes at 50 uM in presence of NADPH by LC-MS/MS analysis; format: ADME, microsome; settings: read-out: CLH
# [23] = Stability in rat liver microsomes at 50 uM after 20 mins in presence of NADPH by LC-MS/MS analysis; format: ADME, microsome; settings: read-out: Stability
# [24] = Stability in rat liver microsomes at 50 uM after 210 mins in presence of NADPH by LC-MS/MS analysis; format: ADME, microsome; settings: microsomes, 3.5 h, 50 µM
# Cytochrome P450 2C9 = Cytochrome P450 2C9 (Homo sapiens, UniProt P11712); test: Inhibition of CYP2C9 in human liver microsomes preincubated for 10 mins followed by NADPH addition measured after 10 mins by LC-MS/MS analysis; format: ADME
# Cytochrome P450 2C9, sequence (P11712 whole entry): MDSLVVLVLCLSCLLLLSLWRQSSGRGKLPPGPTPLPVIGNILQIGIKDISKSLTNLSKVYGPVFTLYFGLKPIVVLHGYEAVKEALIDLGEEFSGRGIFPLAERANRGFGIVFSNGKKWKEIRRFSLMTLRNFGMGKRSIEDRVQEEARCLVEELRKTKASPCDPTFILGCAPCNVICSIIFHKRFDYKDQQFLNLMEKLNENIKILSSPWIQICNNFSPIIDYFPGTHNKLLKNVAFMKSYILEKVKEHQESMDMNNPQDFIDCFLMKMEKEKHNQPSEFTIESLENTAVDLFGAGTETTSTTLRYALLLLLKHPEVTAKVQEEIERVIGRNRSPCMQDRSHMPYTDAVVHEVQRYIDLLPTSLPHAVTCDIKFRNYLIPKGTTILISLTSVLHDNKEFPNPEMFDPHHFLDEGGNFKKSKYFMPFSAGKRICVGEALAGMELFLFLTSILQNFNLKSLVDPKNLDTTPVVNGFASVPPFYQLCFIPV
structure (smiles),measurement,setting,value
COc1cc2ncnc(Nc3ccc(F)c(Cl)c3)c2cc1OCCCN1CCOCC1 [GEFITINIB],Activity,Mus musculus [1],Non-Toxic
Nc1ccn([C@@H]2O[C@H](CO)[C@@H](O)C2(F)F)c(=O)n1 [GEMCITABINE],Activity,Mus musculus [2],Non-Toxic
CC(C)(C)c1[nH]cnc1/C=c1\[nH]c(=O)/c(=C/c2ccccc2)[nH]c1=O [PLINABULIN],Stability,[3],77.21%
same,"remaining at 40 min, 1 µM",[4],99%
same,"remaining at 2 h, 1 µM",[5],109%
same,Stability,[6],34.94%
same,"remaining at 5 min, 1 µM",[7],95.5%
same,"remaining at 2.5 h, 50 µM",[8],29.9%
same,IC50,Cytochrome P450 1A2,1240 nM
same,"remaining at 10 min, 1 µM",[9],97.7%
same,IC50,Cytochrome P450 3A4,> 50 µM
same,"remaining at 2 h, 50 µM",[10],29.9%
same,"fraction unbound at 4 h, 2 µM",[11],0.018
same,"remaining at 1.5 h, 50 µM",[12],41.1%
same,"remaining at 20 min, 1 µM",[13],98.2%
same,"remaining at 40 min, 50 µM",[14],56.6%
same,Stability,[15],65.58%
same,"remaining at 1.5 h, 1 µM",[16],110%
same,"fraction unbound at 4 h, 2 µM",[17],0.039
same,IC50,Cytochrome P450 2C19,4.23 µM
same,"remaining at 1 h, 1 µM",[18],103%
same,"remaining at 1 h, 50 µM",[19],44.8%
same,IC50,Cytochrome P450 2D6,> 50 µM
same,t1/2,[20],59.34 min
same,"fraction unbound at 4 h, 2 µM",[21],0.028
same,microsomal CLint at 50 µM,[22],23.4 µL/min/mg
same,"remaining at 20 min, 50 µM",[23],63.5%
same,Stability,[24],29.64%
same,IC50,Cytochrome P450 2C9,530 nM
